Measurements published in patent US6642036B2, “Sinapoylglucose:malate sinapoyltransferase form malate conjugates from benozic acid glucosides” (E. I. Du Pont de Nemours and Company, priority 2000, dated 2003).
Like-named read-outs stand apart in the source and are kept apart here.

Tests used:
[1] = target: T1, recombinantly produced, refolded SMT protein (Arabidopsis thaliana, UniProt Q8RUW5, A20T/S19M); format: biochemical; settings: for acceptance as acyl acceptor with sinapoylglucose or PHBA 1-O-acylglucoside: 200 ng SMT, 500 μM glucose ester, 400 mM alcohol, pH 6.2, 30° C. for 16 h
T1 construct: consisting primarily of recombinant mature Arabidopsis SMT and some minor protein contaminants; initiator Met (start codon added in place of the signal peptide) (N); made in house
Protocol: Sinapoyl glucose was purified from the sng1 mutant of Arabidopsis as described by Lorenzen et al. (Plant Physiology 112:1625-1630 (1996)). The SMT assay contained 12.5 μL of 0.5 mM sinapoyl glucose in 100 mM potassium phosphate buffer (pH 7.5), 5 μL of 100 mM potassium phosphate buffer (pH 6.0), 5 μL of 1 M malic acid in potassium phosphate buffer (pH 6.0) and 5 μL of E. coli extract corresponding to 100 μg of protein. Assays were incubated for 14 h at 30° C., stopped by addition of 30 μL of methanol and stored at −70° C. before analysis by HPLC. Enzyme assays were analyzed by HPLC on a Nova-Pak® Pak® C18 column (60 Å pore size, […] particle size) using a gradient from 6% acetonitrile, 1.5% phosphoric acid to 48% acetonitrile, followed by 1.5% phosphoric acid and UV detection at 335 nm.
Approximately 250 ng of recombinantly produced, refolded SMT protein was incubated with 200 mM malate, 0.1 mM PHBA 1-O-acyl glucoside in a 25 μL reaction in 100 mM potassium phosphate buffer (pH 6.2) for 12 h at 30° C. Reaction products were separated by HPLC as described in the General Methods. […] The compound was analyzed by LC-MS as described in the General Methods.
The activity of the SMT enzyme was determined using sinapoyl glucose and L-lactate as follows. 1 μg of partially purified recombinant SMT protein was incubated with 500 μM sinapoyl glucose in 100 mM potassium phosphate buffer (pH 6.2) in the absence or presence of 200 mM L-lactate. Enzyme reactions were incubated at 30° C. for 12 h. Reaction products were analyzed by HPLC as described in the General Methods.
Activity of the SMT enzyme was determined using sinapoylglucose or PHBA 1-O-acylglucoside and methanol, ethanol and isopropanol. Briefly, 200 ng of partially purified recombinantly produced SMT protein was incubated with 500 μM of the glucose ester of sinapic acid or PHBA in 100 mM potassium phosphate buffer (pH 6.2) in the absence or presence of 400 mM of the respective alcohols in 100 μL enzyme reactions. Enzyme reactions were incubated at 30° C. for 16 h. All reaction products were analyzed by HPLC as described in Example 1.

[2] = target: SMT (sinapoylglucose:malate sinapoyltransferase) (Arabidopsis thaliana, UniProt Q8RUW5, A20T/S19M)
Protocol: Sinapoyl glucose was purified from the sng1 mutant of Arabidopsis as described by Lorenzen et al. (Plant Physiology 112:1625-1630 (1996)). […] Assays were incubated for 14 h at 30° C., stopped by addition of 30 μL of methanol and stored at −70° C. before analysis by HPLC. Enzyme assays were analyzed by HPLC on a Nova-Pak® Pak® C18 column (60 Å pore size, […] particle size) using a gradient from 6% acetonitrile, 1.5% phosphoric acid to 48% acetonitrile, followed by 1.5% phosphoric acid and UV detection at 335 nm.

O=C(O)CC(O)C(=O)O = experiment: purified protein, by the assay type; settings: other: 30° C., 500 μM sinapoyl glucose, 100 mM potassium phosphate buffer (pH 6.8), 50 ng partially purified SMT, Hofstee plot
[3] = target: T2, sinapoyl glucose and L-malate (SMT reaction) (Arabidopsis thaliana, UniProt Q8RUW5, A20T/S19M); experiment: Turnover number of purified recombinant SMT folded from inclusion bodies; format: biochemical; settings: 30° C., 100 mM potassium phosphate buffer (pH 6.2), 500 μM sinapoyl glucose, 200 mM L-malate
T2 construct: consisting primarily of recombinant mature Arabidopsis SMT and some minor protein contaminants; initiator Met (start codon added in place of the signal peptide) (N); made in house
Protocol: As judged by SDS-PAGE and Coomassie-blue staining, the folded recombinant protein was at least 80% pure and the final yield of active SMT from the 100 mL folding reaction was ˜6 μg, corresponding to ˜0.52% of the original inclusion body material. The turnover number for purified recombinant SMT folded from inclusion bodies was ˜18/sec at 30° C., which compares favorably to the 11.5/sec value that was previously reported for the authentic protein purified from radish (Graewe et al., Planta 187:236-241 (1992)). For this determination the 25 μL enzyme reaction contained 100 mM potassium phosphate buffer (pH 6.2), 500 μM sinapoyl glucose and 200 mM L-malate.

In the case of `C[C@H](O)C(=O)O` [L-lactate], the “acceptance as acyl acceptor with sinapoyl glucose” value ([1]; 1 μg SMT, 500 μM sinapoyl glucose, 200 mM L-lactate, pH 6.2, 30° C. for 12 h, product m/z agrees with sinapoyl lactate) is reported as “a new compound that absorbs at 335 nm is produced”.

In the case of `O=C(O[C@@H]1O[C@H](CO)[C@@H](O)[C@H](O)[C@H]1O)c1ccc(O)cc1` [PHBA 1-O-acyl glucoside], the “Vmax of SMT for PHBA 1-O-acyl glucoside” value ([2]; 30° C., 200 mM malate, 500 ng partially purified SMT, y-intercept of regression curve) is reported as 0.2482 μmol min^−1 mg^−1 protein, the Km ([2]; read-out: Km of SMT for PHBA 1-O-acyl glucoside, 30° C., 200 mM malate, 100 mM potassium phosphate buffer (pH 6.8), 500 ng partially purified SMT, PHBA malate synthesis, Hofstee plot) is reported as ~354 µM and the “conversion by SMT in the presence of malate” value ([1]; 250 ng SMT, 200 mM malate, 0.1 mM PHBA 1-O-acyl glucoside, pH 6.2, 12 h at 30° C., product m/z agrees with PHBA malate) is reported as “converted to a new compound”.

With `CCO` [ethanol] the “acceptance as acyl acceptor with sinapoylglucose or PHBA 1-O-acylglucoside” value [1] was “production of methyl, ethyl and isopropyl esters of sinapic acid and PHBA”.

With `CC(C)O` [isopropanol] the “acceptance as acyl acceptor with sinapoylglucose or PHBA 1-O-acylglucoside” value [1] was “production of methyl, ethyl and isopropyl esters of sinapic acid and PHBA”.

`CO` [methanol] was tested, and the “acceptance as acyl acceptor with sinapoylglucose or PHBA 1-O-acylglucoside” value [1] was “production of methyl, ethyl and isopropyl esters of sinapic acid and PHBA”.

For `COc1cc(/C=C/C(=O)O[C@@H]2O[C@H](CO)[C@@H](O)[C@H](O)[C@H]2O)cc(OC)c1O` [sinapoyl glucose], the “Vmax of SMT for sinapoyl glucose” value ([2]; 30° C., 200 mM malate, 50 ng partially purified SMT, y-intercept of regression curve) was 21.315 μmol min^−1 mg^−1 protein and the Km ([2]; read-out: Km of SMT for sinapoyl glucose, pH 6.8) was ~541 µM.

With “SMT (sinapoylglucose:malate sinapoyltransferase) (Arabidopsis thaliana; A20T/S19M)” the Km (O=C(O)CC(O)C(=O)O) was 42000 µM.

B1: purified recombinant SMT: recombinant mature Arabidopsis sinapoylglucose:malate sinapoyltransferase (SEQ ID NO:7) folded from E. coli inclusion bodies (protein)
chain: MTSIVKFLPGFEGPLPFELETGYIGIGEDENVQFFYYFIKSENNPKEDPLLIWLNGGPGCSCLGGIIFENGPVGLKFEVFNGSAPSLFSTTYSWTKMANIIFLDQPVGSGFSYSKTPIDKTGDISEVKRTHEFLQKWLSRHPQYFSNPLYVVGDSYSGMIVPALVQEISQGNYICCEPPINLQGYMLGNPVTYMDFEQNFRIPYAYGMGLISDEIYEPMKRICNGNYYNVDPSNTQCLKLTEEYHKCTAKINIHHILTPDCDVTNVTSPDCYYYPYHLIECWANDESVREALHIEKGSKGKWARCNRTIPYNHDIVSSIPYHMNNSISGYRSLIYSGDHDIAVPFLATQAWIRSLNYSPIHNWRPWMINNQIAGYTRAYSNKMTFATIKGGGHTAEYRPNETFIMFQRWISGQPL
For B1, the turnover number [3] was ~18 s⁻¹.
